Experimental data published in US11466044B2 (WAYNE STATE UNIVERSITY, priority 2017, dated 2022).
Structures can show the parent of a compound that is named as a salt. Where two headings read alike, the source gives them in different places.

Key:
M. abscessus = experiment: MIC by broth microdilution, M. abscessus; assay type: cell-based; conditions: Mycobacteroides abscessus
P aeruginosa = experiment: MIC by broth microdilution, P aeruginosa isolates; assay type: cell-based, Pseudomonas aeruginosa; conditions: strain AG220 Pseudomonas aeruginosa ATCC27853; read-out: MIC AG220 P. aerugin
[1] = tested on: mitochondrial ribosome (human chimeric); assay type: biochemical
Text: (§1) The antiribosomal activity of these compounds was investigated with cell-free translation assays using both wild type bacterial ribosomes and hybrid ribosomes carrying eukaryotic decoding A sites enabling the prediction of selectivity.

[2] = tested on: cytosolic ribosome (human chimeric); assay type: biochemical
Text: as §1

[3] = tested on: Enterobacter cloacae AG290; experiment: MIC by broth microdilution, Enterobacter cloacae; assay type: cell-based; conditions: strain AG290 Enterobacter cloacae; read-out: MIC AG290 E. cloacae
M. smegmatis SZ380 = experiment: MIC by broth microdilution, M. smegmatis; conditions: Mycolicibacterium smegmatis
[4] = tested on: A1555G mutant mitochondrial ribosome (human chimeric); experiment: in-vitro translation assay, human chimeric ribosomes, A1555G mutant mitochondrial decoding site; assay type: biochemical; conditions: Table 3 (Example 3)
Text: as §1

[5] = tested on: Klebsiella pneumonia AG215; experiment: MIC by broth microdilution, Klebsiella pneumonia; assay type: cell-based; conditions: Klebsiella pneumoniae; strain AG215 Klebsiella pneumonia; read-out: MIC AG215 K. pneumon
[6] = tested on: E coli carrying specific resistance determinants; experiment: MIC by broth microdilution, E coli carrying specific resistance determinants; assay type: cell-based; conditions: Escherichia coli
E coli wild type = experiment: MIC by broth microdilution, wild type E coli; assay type: cell-based; conditions: Escherichia coli
[7] = tested on: wild type bacterial ribosomes; experiment: in-vitro translation assay, bacterial ribosomes; assay type: biochemical
Text: as §1

[8] = tested on: Acinetobacter baumannii pittii AG225; experiment: MIC by broth microdilution, Acinetobacter baumannii; assay type: cell-based; conditions: strain AG225 Acinetobacter baumannii pittii
MRSA = experiment: MIC by broth microdilution, MRSA isolates; assay type: cell-based; conditions: Staphylococcus aureus, MRSA, Table 1 (Example 3)
N. gonorrhoeae = experiment: Disk diffusion, N. gonorrhoeae; assay type: cell-based; conditions: Neisseria gonorrhoeae

Question: `CNC1C(OC2C(N)CC(N)C(O)C2OC2OC(CO)C(OC3OC(CN)C(O)C(O)C3N)C2O)OC(CN)C(O)C1O` (centres unmarked) [Compound 171, 2′-N-Methyl-neomycin acetate salt] was tested. Which MIC (M. abscessus; ATCC19977, ATCC 19977 WT, Table 5 (Example 3), read-out: MIC M. abscessus ATCC 19977 WT) did it give?
Answer: 0.25 µg/mL

Question: What about the MIC (M. abscessus; read-out: MIC M. abscessus engineered Δeis2) of the same molecule?
Answer: 0.063 µg/mL

Question: And the MIC (M. abscessus; ATCC, Table 4 (Example 3), read-out: MIC M. abscessus ATCC)?
Answer: 0.25 µg/mL

Question: And the MIC (M. abscessus; Clin. Isol., Table 4 (Example 3), read-out: MIC M. abscessus Clin. Isol.)?
Answer: 0.5 µg/mL

Question: What about the MIC (P aeruginosa) of the same molecule?
Answer: > 64 µg/mL

Question: And the “Selectivity for Binding to the Bacterial Ribosome over the Mitochondrial Ribosome” value ([1]; Table 3 (Example 3))?
Answer: 483

Question: What about the IC50 ([1]; mitochondrial, Table 4 (Example 3), read-out: IC50 Mit) of the same molecule?
Answer: 4.7 µM

Question: What about the “Selectivity for Binding to the Bacterial Ribosome over the Cytosolic Ribosome” value ([2]; Table 3 (Example 3)) of the same molecule?
Answer: 4000

Question: And the IC50 ([2]; cytosolic, Table 4 (Example 3), read-out: IC50 Cyt)?
Answer: 37 µM

Question: And the MIC [3]?
Answer: 0.5 to 1 µg/mL

Question: What about the MIC (M. smegmatis SZ380; SZ380, read-out: MIC M. smegmatis SZ380 WT, SZ380 WT, Table 5 (Example 3)) of the same molecule?
Answer: < 0.063 µg/mL

Question: What about the MIC (M. smegmatis SZ380; SZ380, read-out: MIC SZ380 M. smegmatis, strain SZ380 Mycobacterium smegmatis) of the same molecule?
Answer: < 0.0625 µg/mL

Question: What about the “Selectivity for Binding to the Bacterial Ribosome over the Mutant Mitochondrial Ribosome” value [4] of the same molecule?
Answer: 117

Question: What about the MIC [5] of the same molecule?
Answer: 0.5 µg/mL

Question: What about the MIC ([6]; read-out: MIC E coli AG106 AAC(2′)) of the same molecule?
Answer: 0.5 µg/mL

Question: What about the MIC ([6]; read-out: MIC E. coli AAC(2′) AG106) of the same molecule?
Answer: 0.5 µg/mL

Question: And the MIC ([6]; read-out: MIC E. coli AAC(2′) pH434)?
Answer: 4 µg/mL

Question: And the MIC ([6]; read-out: MIC E. coli AG106 AAC(2′)-Ia)?
Answer: 0.5 µg/mL

Question: And the MIC ([6]; read-out: MIC E. coli pGB2armA armA)?
Answer: 1 µg/mL

Question: What about the MIC ([6]; read-out: MIC E. coli pH434 AAC(2′)-Ib) of the same molecule?
Answer: 4 µg/mL

Question: What about the MIC (E coli wild type; AG006 Wild type, Table 2 (Example 3), read-out: MIC E coli AG006 Wild type) of the same molecule?
Answer: 0.25 µg/mL

Question: What about the MIC (E coli wild type; AG104 Wild type, Table 2 (Example 3), read-out: MIC E coli AG104 Wild type) of the same molecule?
Answer: 0.5 µg/mL

Question: And the MIC (E coli wild type; ATCC25922, strain AG212 E. coli (ATCC25922), read-out: MIC AG212 E. coli)?
Answer: 1 µg/mL

Question: And the MIC (E coli wild type; WT, Table 4 (Example 3), read-out: MIC E. coli WT)?
Answer: 0.5 µg/mL

Question: And the MIC (E coli wild type; WT, Table 5 (Example 3), read-out: MIC E. coli WT)?
Answer: 0.5 µg/mL

Question: And the MIC (E coli wild type; clinical isolate AG001, Table 1 (Example 3), read-out: MIC E coli AG001)?
Answer: 1 µg/mL

Question: And the MIC (E coli wild type; clinical isolate AG003, Table 1 (Example 3), read-out: MIC E coli AG003)?
Answer: 1 µg/mL

Question: And the MIC (E coli wild type; clinical isolate AG055, Table 1 (Example 3), read-out: MIC E coli AG055)?
Answer: 1 µg/mL

Question: And the IC50 ([7]; bacterial ribosome, Table 4 (Example 3), read-out: IC50 Bac)?
Answer: 0.01 µM

Question: And the “selectivity for the bacterial ribosome over mitochondrial (wild type, A1555G mutant) and cytosolic ribosomes, in words” value ([7]; compared with the parent compound)?
Answer: increased selectivity for the bacterial ribosome

Question: And the MIC [8]?
Answer: 1 µg/mL

Question: What about the MIC (MRSA; clinical isolate AG038, read-out: MIC MRSA AG038) of the same molecule?
Answer: 0.25 to 0.5 µg/mL

Question: And the MIC (MRSA; clinical isolate AG039, read-out: MIC MRSA AG039)?
Answer: > 32 µg/mL

Question: And the MIC (MRSA; clinical isolate AG042, read-out: MIC MRSA AG042)?
Answer: > 32 µg/mL

Question: And the zone of inhibition at 25 nmol/disc (N. gonorrhoeae)?
Answer: 9 mm
